# In patent US12371454B2, “Cyclic peptide compound having Kras inhibitory action” (priority 2019, dated 2025):
# Positions of bridges follow the written chain, without caps; N, C: chain ends. Non-standard residues stand in square brackets, D forms with d. Residues, ends and D or L forms follow the SMILES beside them. *: point of attachment. hPhe(3,5-F2-4-CF3) = N[C@@H](CCc1cc(F)c(C(F)(F)F)c(F)c1)C(=O)O; hPhe(3-Cl-4-CF3) = N[C@@H](CCc1ccc(C(F)(F)F)c(Cl)c1)C(=O)O; NMePhe(4-CF3) = CN[C@@H](Cc1ccc(C(F)(F)F)cc1)C(=O)O; NMeAbu(4,4,4-F3) = CN[C@@H](CC(F)(F)F)C(=O)O; NMePhe(4-Cl) = CN[C@@H](Cc1ccc(Cl)cc1)C(=O)O; NMePhe(4-Me) = CN[C@@H](Cc1ccc(C)cc1)C(=O)O; NMePhe(4-F) = CN[C@@H](Cc1ccc(F)cc1)C(=O)O; Leu(4,5-dehydro) = C=C(C)C[C@H](N)C(=O)O; NMeGly(cPent) = CN[C@H](C(=O)O)C1CCCC1; Phe(3-I) = N[C@@H](Cc1cccc(I)c1)C(=O)O; Pro(4,4-F2) = O=C(O)[C@@H]1CC(F)(F)CN1; Gly(cPent) = N[C@H](C(=O)O)C1CCCC1; NMeCha = CN[C@@H](CC1CCCCC1)C(=O)O; NMeGly(cPr) = CN[C@H](C(=O)O)C1CC1; Azetidine(3,3-F2) = FC1(F)CN(*)C1; NMeChg = CN[C@H](C(=O)O)C1CCCCC1; NMeI = CC[C@H](C)[C@H](NC)C(=O)O; NMeD = CN[C@@H](CC(=O)O)C(=O)O; NMeL = CN[C@@H](CC(C)C)C(=O)O; NMeNva = CCC[C@H](NC)C(=O)O; NMeV = CN[C@H](C(=O)O)C(C)C; d(β3hA) = C[C@@H](N)CC(=O)O; NMeA = CN[C@@H](C)C(=O)O; NMeAib = CNC(C)(C)C(=O)O; Piperidide = C1CCN(*)CC1; Pyrrolidide = C1CCN(*)C1; Ac5c = NC1(C(=O)O)CCCC1; Aze = O=C(O)[C@@H]1CCN1; Sar = CNCC(=O)O
# Biological target: T1, Kras and SOS1 (biotin-tagged human Kras loaded with GDP, His-tagged human SOS1) (Homo sapiens, UniProt P01116, G12D)
# T1 construct: made in house; host or cells: E. coli (stated for Kras only)
# Assay: Protein-protein interaction inhibition between Kras and SOS1 (KrasGl2D-SOS PPI) using AlphaScreen
# Assay type: binding
# Conditions: AlphaScreen; biotin-tagged human Kras loaded with GDP, His-tagged human SOS1; read-out: KRAS G12D-SOS PPI IC50
# Summary of the method: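 AlphaScreen format: Ni donor beads capture His-SOS1, streptavidin acceptor beads capture biotinylated Kras (E. coli-expressed, GDP-loaded post-purification). Excite 680 nm, read 520-620 nm.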
# T1 sequence (P01116 1-188 isoform P01116-2 G12D): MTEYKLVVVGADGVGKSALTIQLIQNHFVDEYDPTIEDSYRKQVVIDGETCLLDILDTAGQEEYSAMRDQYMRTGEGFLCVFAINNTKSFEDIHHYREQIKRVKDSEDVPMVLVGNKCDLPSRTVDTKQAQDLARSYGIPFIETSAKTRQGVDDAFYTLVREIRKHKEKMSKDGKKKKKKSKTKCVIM
row,Structure (SMILES),IC50 [µM]
1,"CC[C@H](C)[C@@H]1NC(=O)[C@H](CC(F)(F)F)N(C)C(=O)C[C@@H](C(=O)N2CCCC2)N(C)C(=O)[C@H](C2CCCCC2)N(C)C(=O)C2(CCCC2)NC(=O)[C@@H]2CC(F)(F)CN2C(=O)[C@H](CCc2cc(F)c(C(F)(F)F)c(F)c2)NC(=O)CN(C)C(=O)[C@H](Cc2ccc(C)cc2)N(C)C(=O)CN(C)C(=O)CN(C)C1=O [Compound 1317] ([NMeAbu(4,4,4-F3)]I[Sar][Sar][NMePhe(4-Me)][Sar][hPhe(3,5-F2-4-CF3)][Pro(4,4-F2)][Ac5c][NMeChg][NMeD]-Pyrrolidide; lactam N-11)",0.00057
2,CC[C@H](C)[C@@H]1NC(=O)[C@H](CC(C)C)N(C)C(=O)C[C@@H](C(=O)N(C)C)N(C)C(=O)[C@H]([C@@H](C)CC)N(C)C(=O)C2(CCCC2)NC(=O)[C@@H]2CCCN2C(=O)[C@H](CCc2ccc(C(F)(F)F)c(Cl)c2)NC(=O)CN(C)C(=O)[C@H](Cc2ccc(C)cc2)N(C)C(=O)CN(C)C(=O)CN(C)C1=O [Compound 1836] ([NMeL]I[Sar][Sar][NMePhe(4-Me)][Sar][hPhe(3-Cl-4-CF3)]P[Ac5c][NMeI][NMeD]-NMe2; lactam N-11),0.00047
3,"CC[C@H](C)[C@@H]1NC(=O)[C@H](C)N(C)C(=O)C[C@@H](C(=O)N2CCCCC2)N(C)C(=O)[C@H](C(C)C)N(C)C(=O)[C@H](COC)NC(=O)[C@H](CC(=O)N2CC(F)(F)C2)N(C)C(=O)[C@H](CCc2ccc(C(F)(F)F)c(Cl)c2)NC(=O)CN(C)C(=O)[C@H](CC2CCCCC2)N(C)C(=O)CN(C)C(=O)CN(C)C1=O [Compound 793] ([NMeA]I[Sar][Sar][NMeCha][Sar][hPhe(3-Cl-4-CF3)][NMeD](Azetidine(3,3-F2))S(Me)[NMeV][NMeD]-Piperidide; lactam N-11)",0.024
4,"CCC[C@H]1C(=O)N[C@@H]([C@@H](C)CC)C(=O)N(C)[C@@H](C)C(=O)N2CC[C@H]2C(=O)N(C)[C@@H](CC2CCCCC2)C(=O)N(C)CC(=O)N[C@@H](CCc2ccc(C(F)(F)F)c(Cl)c2)C(=O)N2CCC[C@H]2C(=O)NC2(CCCC2)C(=O)N(C)[C@@H](C2CCCC2)C(=O)N(C)[C@H](C(=O)N2CCCCC2)CC(=O)N1C [Compound 391, (5S,8S,11S,15S,18S,23aS,29S,35S,37aS)-8-((S)-sec-butyl)-29-(3-chloro-4-(trifluoromethyl)phenethyl)-35-(cyclohexylmethyl)-18-cyclopentyl-5,6,12,16,19,33,36-heptamethyl-15-(piperidine-1-carbonyl)-11-propyldocosahydro-2H,4H-spiro[azeto[2,1-u]pyrrolo[2,1-i][1,4,7,10,13,16,19,22,25,28,31]undecaazacyclotetratriacontine-21,1′-cyclopentan]-4,7,10,13,17,20,23,28,31,34,37(14H,22H)-undecaone] ([NMeNva]I[NMeA][Aze][NMeCha][Sar][hPhe(3-Cl-4-CF3)]P[Ac5c][NMeGly(cPent)][NMeD]-Piperidide; lactam N-11)",0.0004
5,"CC[C@H](C)[C@@H]1NC(=O)[C@H](CC(C)C)N(C)C(=O)C[C@@H](C(=O)N(C)C)N(C)C(=O)[C@H]([C@@H](C)CC)N(C)C(=O)C2(CCCC2)NC(=O)[C@H](Cc2ccc(F)cc2)N(C)C(=O)[C@H](CCc2cc(F)c(C(F)(F)F)c(F)c2)NC(=O)CN(C)C(=O)[C@H](Cc2ccc(C(F)(F)F)cc2)N(C)C(=O)[C@@H]2CCN2C(=O)[C@H](C)N(C)C1=O [Compound 1882] ([NMeL]I[NMeA][Aze][NMePhe(4-CF3)][Sar][hPhe(3,5-F2-4-CF3)][NMePhe(4-F)][Ac5c][NMeI][NMeD]-NMe2; lactam N-11)",0.0097
6,"C=C(C)C[C@@H]1NC(=O)[C@H](Cc2cccc(I)c2)NC(=O)CN(C)C(=O)[C@H](Cc2ccc(Cl)cc2)N(C)C(=O)CN(C)C(=O)CN(C)C(=O)[C@H]([C@@H](C)CC)NC(=O)[C@H](CC(C)C)N(C)C(=O)C[C@@H](C(=O)N2CCCCC2)N(C)C(=O)[C@H](CC(C)C)NC(=O)C(C)(C)N(C)C1=O [Compound 1421] ([NMeL]I[Sar][Sar][NMePhe(4-Cl)][Sar][Phe(3-I)][Leu(4,5-dehydro)][NMeAib]L[NMeD]-Piperidide; lactam N-11)",0.032
7,CC(C)C[C@H]1C(=O)N[C@@H](C2CCCC2)C(=O)N(C)CC(=O)N(C)CC(=O)N(C)[C@@H](CC2CCCCC2)C(=O)N(C)CC(=O)N[C@@H](CCc2ccc(C(F)(F)F)c(Cl)c2)C(=O)N2CCC[C@H]2C(=O)NC2(CCCC2)C(=O)N(C)[C@@H](C(C)C)C(=O)N[C@H](C)CC(=O)N1C [Compound 333] (cyclo([Ac5c][NMeV][d(β3hA)][NMeL][Gly(cPent)][Sar][Sar][NMeCha][Sar][hPhe(3-Cl-4-CF3)]P)),0.11
8,CC[C@H](C)[C@@H]1NC(=O)[C@H](C2CC2)N(C)C(=O)C[C@@H](C)NC(=O)[C@H](C(C)C)N(C)C(=O)C2(CCCC2)NC(=O)[C@@H]2CCCN2C(=O)[C@H](CCc2ccc(C(F)(F)F)c(Cl)c2)NC(=O)CN(C)C(=O)[C@H](CC2CCCCC2)N(C)C(=O)[C@@H]2CCN2C(=O)[C@H](C)N(C)C1=O [Compound 565] (cyclo([Ac5c][NMeV][d(β3hA)][NMeGly(cPr)]I[NMeA][Aze][NMeCha][Sar][hPhe(3-Cl-4-CF3)]P)),0.055
